System: CD1 female mouse brain lipidome
Experiment: Brain-region lipid levels (HPLC/MS/MS lipidomics) 2 h after single i.p. 3 mg/kg CP 55,940 vs vehicle
Assay type: in vivo
Procedure: The Bloomington Institutional Animal Care and Use Committee of Indiana University reviewed and approved the animal procedures. Female mice from the CD1 strain were utilized to match our study examining THC’s effects on the brain lipidome ([Leishman et al., 2018]). Mice were given a single i.p. injection of either 3 mg/kg CP or 1:1:18 cremophor:ethanol:saline vehicle (please refer to the section “3 mg/kg CP Is Relevant for Synthetic Cannabinoid Abuse and Has Stronger Effects on the Female Mouse Brain Lipidome During Adolescence” for a justification of dose and use of female mice). Three different age groups were given injections: PND 35 and PND 50 adolescents, and adult mice (PND 113). At least eight mice in each age group received CP and at least eight received vehicle. Matching the THC study time course ([Leishman et al., 2018]), mice were sacrificed via rapid decapitation 2 h after injection. Brains were immediately removed and flash-frozen in liquid nitrogen, and then stored at -80°C until dissections were performed. Brains were dissected on an ice-cold dissection plate into the following regions: STR, HIPP, CER, THAL, CTX, HYP, MID, and STEM. These abbreviations for these brain areas will be used exclusively when discussing the results generated by these specific dissections. Each dissected area was immediately placed in liquid nitrogen and then stored at -80°C until used for lipid extraction.
Tissue extracts were performed as previously described ([Bradshaw et al., 2006]; [Stuart et al., 2013]; [Raboune et al., 2014]; [Leishman et al., 2016a],[b], [2017], [2018]). First, samples were shock frozen in liquid nitrogen, weighed, and transferred to a centrifuge tube. The mass of the largest sample was multiplied by 50 to determine how many milliliters of HPLC-grade methanol (Fisher, Fair Lawn, NJ, United States) to add. Then, samples were spiked with 500 pmol deuterium-labeled NAGly (d8NAGly; Cayman Chemical, Ann Arbor, MI, United States). Samples were placed on ice in darkness for 2 h then individually homogenized and centrifuged at 19,000 × g for 20 min at 20°C. Supernatants were diluted with HPLC water (purified in house) to make a solution of 75% water, 25% supernatant. Lipids were partially purified on C18 solid phase extraction columns (Agilent, Palo Alto, CA, United States). A series of four elutions with 1.5 mL of 60%, 75%, 85%, and 100% methanol were collected ([Stuart et al., 2013]; [Leishman et al., 2016a],[b], [2018]).
As previously described ([Bradshaw et al., 2006]; [Tan et al., 2006]; [Smoum et al., 2010]; [Stuart et al., 2013]; [Tortoriello et al., 2013]; [Raboune et al., 2014]; [Leishman et al., 2016a],[b], [2017], [2018]), samples were analyzed using an Applied Biosystems API 3000 triple quadrupole mass spectrometer with electrospray ionization (Foster City, CA, United States). Using an Agilent XDB-C18 reversed phase analytical column and optimized mobile phase gradients, 20 μL from each elution were chromatographed. Two Shimadzu 10ADvp pumps (Columbia, MD, United States) provided the pressure for gradient elution. Mobile phase A: 20% methanol, 80% water (v/v) and 1 mM ammonium acetate (Sigma, St. Louis, MO, United States). Mobile phase B: 100% methanol, 1 mM ammonium acetate. Every method run began with 0% mobile phase B, reached 100% mobile phase B flowing at 0.2 mL/min, and gradually returned to 0% mobile phase B.
This screening library will be referred to as the lipidome when discussing data from this study. HPLC/MS/MS data were analyzed using Analyst software (Applied Biosystems) ([Bradshaw et al., 2006]; [Tan et al., 2006]; [Stuart et al., 2013]; [Tortoriello et al., 2013]; [Raboune et al., 2014]; [Leishman et al., 2016a],[b], [2017], [2018]). Chromatograms (Supplementary Figure 3) were generated by determining the retention time of analytes from the analytical column with a [M-1] or [M+1] parent peak and a fragmentation peak corresponding to the programmed values. […]

CCCCCCC(C)(C)c1ccc([C@@H]2C[C@H](O)CC[C@H]2CCCO)c(O)c1 [CP 55,940]
N-stearoyl leucine mean level (PND 35 striatum): 9.98E-13 moles per gram | N-stearoyl methionine mean level (PND 35 striatum): 1.31E-12 moles per gram | N-stearoyl phenylalanine mean level (PND 35 striatum): 1.28E-12 moles per gram | N-stearoyl serine mean level (PND 35 striatum): 1.89E-11 moles per gram | N-stearoyl tryptophan mean level (PND 35 striatum): 5.77E-13 moles per gram | Oleic acid mean level (PND 35 striatum): 1.18E-09 moles per gram | PGE2 mean level (PND 35 striatum): 3.74E-10 moles per gram | PGF2α mean level (PND 35 striatum): 2.8E-10 moles per gram | PhosphoLEA mean level (PND 35 striatum): 1.91E-11 moles per gram | total changes in lipid levels across the eight regions (PND 50): 141 | changes in lipid levels that were decreases (PND 50, eight regions): 110 | 2-linoleoyl glycerol level vs vehicle (PND 50 CER): ↓↓ (1.50-1.99 times lower than vehicle) | 2-oleoyl glycerol level vs vehicle (PND 50 CER): ↓ (1-1.49 times lower than vehicle) | 2-palmitoyl glycerol level vs vehicle (PND 50 CER): ↓ (1-1.49 times lower than vehicle) | 6-ketoPGF1α level vs vehicle (PND 50 CER): ↑ (1-1.49 times higher than vehicle) | Arachidonic acid level vs vehicle (PND 50 CER): ↓ (1-1.49 times lower than vehicle) | Linoleic acid level vs vehicle (PND 50 CER): ↓ (1-1.49 times lower than vehicle) | N-arachidonoyl GABA level vs vehicle (PND 50 CER): ↓ (1-1.49 times lower than vehicle) | N-arachidonoyl ethanolamine level vs vehicle (PND 50 CER): ↓ (1-1.49 times lower than vehicle) | N-arachidonoyl glycine level vs vehicle (PND 50 CER): ↓ (1-1.49 times lower than vehicle) | N-arachidonoyl phenylalanine level vs vehicle (PND 50 CER): ↓↓ (1.50-1.99 times lower than vehicle) | N-arachidonoyl serine level vs vehicle (PND 50 CER): ↓ (1-1.49 times lower than vehicle) | N-arachidonoyl taurine level vs vehicle (PND 50 CER): ↓ (1-1.49 times lower than vehicle) | N-arachidonoyl tyrosine level vs vehicle (PND 50 CER): ↓ (1-1.49 times lower than vehicle) | N-docosahexaenoyl phenylalanine level vs vehicle (PND 50 CER): ↓ (1-1.49 times lower than vehicle) | N-linoleoyl ethanolamine level vs vehicle (PND 50 CER): ↓ (1-1.49 times lower than vehicle) | N-oleoyl GABA level vs vehicle (PND 50 CER): ↓ (1-1.49 times lower than vehicle) | N-oleoyl ethanolamine level vs vehicle (PND 50 CER): ↓ (1-1.49 times lower than vehicle) | N-oleoyl phenylalanine level vs vehicle (PND 50 CER): ↑ (1-1.49 times higher than vehicle) | N-palmitoyl leucine level vs vehicle (PND 50 CER): ↑↑ (1.50-1.99 times higher than vehicle) | N-palmitoyl valine level vs vehicle (PND 50 CER): ↑ (1-1.49 times higher than vehicle) | Oleic Acid level vs vehicle (PND 50 CER): ↓ (1-1.49 times lower than vehicle) | PGE2 level vs vehicle (PND 50 CER): ↓ (1-1.49 times lower than vehicle) | PGF2α level vs vehicle (PND 50 CER): ↓ (1-1.49 times lower than vehicle) | 2-linoleoyl glycerol level vs vehicle (PND 50 CTX): ↓ (1-1.49 times lower than vehicle) | 2-oleoyl glycerol level vs vehicle (PND 50 CTX): ↓ (1-1.49 times lower than vehicle) | Arachidonic acid level vs vehicle (PND 50 CTX): ↓ (1-1.49 times lower than vehicle) | Linoleic acid level vs vehicle (PND 50 CTX): ↓↓ (1.50-1.99 times lower than vehicle) | N- stearoyl valine level vs vehicle (PND 50 CTX): ↑ (1-1.49 times higher than vehicle) | N-arachidonoyl GABA level vs vehicle (PND 50 CTX): ↓ (1-1.49 times lower than vehicle) | N-arachidonoyl alanine level vs vehicle (PND 50 CTX): ↓ (1-1.49 times lower than vehicle) | N-arachidonoyl ethanolamine level vs vehicle (PND 50 CTX): ↓ (1-1.49 times lower than vehicle) | N-arachidonoyl phenylalanine level vs vehicle (PND 50 CTX): ↓ (1-1.49 times lower than vehicle) | N-arachidonoyl taurine level vs vehicle (PND 50 CTX): ↓ (1-1.49 times lower than vehicle) | N-docosahexaenoyl ethanolamine level vs vehicle (PND 50 CTX): ↓ (1-1.49 times lower than vehicle) | N-linoleoyl ethanolamine level vs vehicle (PND 50 CTX): ↓ (1-1.49 times lower than vehicle) | N-oleoyl ethanolamine level vs vehicle (PND 50 CTX): ↓↓ (1.50-1.99 times lower than vehicle) | N-oleoyl serine level vs vehicle (PND 50 CTX): ↑ (1-1.49 times higher than vehicle) | N-palmitoyl leucine level vs vehicle (PND 50 CTX): ↑ (1-1.49 times higher than vehicle) | N-palmitoyl methionine level vs vehicle (PND 50 CTX): ↑ (1-1.49 times higher than vehicle) | N-palmitoyl phenylalanine level vs vehicle (PND 50 CTX): ↑ (1-1.49 times higher than vehicle) | N-palmitoyl tyrosine level vs vehicle (PND 50 CTX): ↑ (1-1.49 times higher than vehicle) | N-palmitoyl valine level vs vehicle (PND 50 CTX): ↑ (1-1.49 times higher than vehicle) | N-stearoyl phenylalanine level vs vehicle (PND 50 CTX): ↑ (1-1.49 times higher than vehicle) | PGE2 level vs vehicle (PND 50 CTX): ↓ (1-1.49 times lower than vehicle) | 2-linoleoyl glycerol level vs vehicle (PND 50 HIPP): ↓ (1-1.49 times lower than vehicle) | 6-ketoPGF1α level vs vehicle (PND 50 HIPP): ↑ (1-1.49 times higher than vehicle) | Linoleic acid level vs vehicle (PND 50 HIPP): ↓ (1-1.49 times lower than vehicle) | N-arachidonoyl alanine level vs vehicle (PND 50 HIPP): ↓ (1-1.49 times lower than vehicle) | N-arachidonoyl ethanolamine level vs vehicle (PND 50 HIPP): ↓↓ (1.50-1.99 times lower than vehicle) | N-arachidonoyl glycine level vs vehicle (PND 50 HIPP): ↓↓ (1.50-1.99 times lower than vehicle) | N-arachidonoyl serine level vs vehicle (PND 50 HIPP): ↓↓ (1.50-1.99 times lower than vehicle) | N-arachidonoyl taurine level vs vehicle (PND 50 HIPP): ↓ (1-1.49 times lower than vehicle) | N-arachidonoyl tyrosine level vs vehicle (PND 50 HIPP): ↑ (1-1.49 times higher than vehicle) | N-docosahexaenoyl ethanolamine level vs vehicle (PND 50 HIPP): ↓ (1-1.49 times lower than vehicle) | N-linoleoyl ethanolamine level vs vehicle (PND 50 HIPP): ↓↓ (1.50-1.99 times lower than vehicle) | N-linoleoyl serine level vs vehicle (PND 50 HIPP): ↑ (1-1.49 times higher than vehicle) | N-oleoyl leucine level vs vehicle (PND 50 HIPP): ↓ (1-1.49 times lower than vehicle) | N-oleoyl serine level vs vehicle (PND 50 HIPP): ↑ (1-1.49 times higher than vehicle) | PGE2 level vs vehicle (PND 50 HIPP): ↑ (1-1.49 times higher than vehicle) | PGF2α level vs vehicle (PND 50 HIPP): ↑ (1-1.49 times higher than vehicle) | 2-arachidonoyl glycerol level vs vehicle (PND 50 HYP): ↓ (1-1.49 times lower than vehicle) | N-arachidonoyl phenylalanine level vs vehicle (PND 50 HYP): ↓ (1-1.49 times lower than vehicle) | N-palmitoyl leucine level vs vehicle (PND 50 HYP): ↑ (1-1.49 times higher than vehicle) | PGF2α level vs vehicle (PND 50 HYP): ↑ (1-1.49 times higher than vehicle) | number of lipids changed (PND 50 HYP, 49 detected): four | 2-linoleoyl glycerol level vs vehicle (PND 50 MID): ↓ (1-1.49 times lower than vehicle) | 2-oleoyl glycerol level vs vehicle (PND 50 MID): ↓ (1-1.49 times lower than vehicle) | 6-ketoPGF1α level vs vehicle (PND 50 MID): ↓ (1-1.49 times lower than vehicle) | Linoleic acid level vs vehicle (PND 50 MID): ↓ (1-1.49 times lower than vehicle) | N-arachidonoyl GABA level vs vehicle (PND 50 MID): ↓ (1-1.49 times lower than vehicle) | N-arachidonoyl alanine level vs vehicle (PND 50 MID): ↓↓ (1.50-1.99 times lower than vehicle) | N-arachidonoyl ethanolamine level vs vehicle (PND 50 MID): ↓ (1-1.49 times lower than vehicle) | N-arachidonoyl glycine level vs vehicle (PND 50 MID): ↓↓ (1.50-1.99 times lower than vehicle) | N-arachidonoyl methionine level vs vehicle (PND 50 MID): ↓↓ (1.50-1.99 times lower than vehicle) | N-arachidonoyl phenylalanine level vs vehicle (PND 50 MID): ↓ (1-1.49 times lower than vehicle) | N-arachidonoyl tyrosine level vs vehicle (PND 50 MID): ↓ (1-1.49 times lower than vehicle) | N-docosahexaenoyl GABA level vs vehicle (PND 50 MID): ↓ (1-1.49 times lower than vehicle) | N-docosahexaenoyl ethanolamine level vs vehicle (PND 50 MID): ↓ (1-1.49 times lower than vehicle) | N-docosahexaenoyl leucine level vs vehicle (PND 50 MID): ↑ (1-1.49 times higher than vehicle) | N-linoleoyl ethanolamine level vs vehicle (PND 50 MID): ↓ (1-1.49 times lower than vehicle) | N-oleoyl ethanolamine level vs vehicle (PND 50 MID): ↓ (1-1.49 times lower than vehicle) | N-oleoyl methionine level vs vehicle (PND 50 MID): ↓↓ (1.50-1.99 times lower than vehicle) | N-palmitoyl alanine level vs vehicle (PND 50 MID): ↓ (1-1.49 times lower than vehicle) | N-palmitoyl ethanolamine level vs vehicle (PND 50 MID): ↓ (1-1.49 times lower than vehicle) | N-palmitoyl leucine level vs vehicle (PND 50 MID): ↑ (1-1.49 times higher than vehicle) | N-palmitoyl serine level vs vehicle (PND 50 MID): ↓ (1-1.49 times lower than vehicle) | N-stearoyl methionine level vs vehicle (PND 50 MID): ↓ (1-1.49 times lower than vehicle) | N-stearoyl phenylalanine level vs vehicle (PND 50 MID): ↓ (1-1.49 times lower than vehicle) | Oleic Acid level vs vehicle (PND 50 MID): ↓ (1-1.49 times lower than vehicle) | PGE2 level vs vehicle (PND 50 MID): ↓ (1-1.49 times lower than vehicle) | PGF2α level vs vehicle (PND 50 MID): ↓ (1-1.49 times lower than vehicle)
